Reference: ChEMBL document CHEMBL1909046, “DrugMatrix in vitro pharmacology data”
pIC50: −log10 of the molar value.

Key:
[1] = DRUGMATRIX: Calcium Channel Type L, Dihydropyridine radioligand binding (ligand: [3H] Nitrendipine); type: cell membranes, Rattus norvegicus, Wistar, Cerebral cortex, Membrane; details: Not Active = under 50% inhibition at 10 µM
[2] = DRUGMATRIX: GABAA, Muscimol, Central radioligand binding (ligand: [3H] Muscimol); type: cell membranes, Rattus norvegicus, Wistar, Brain, Membrane; details: Not Active = under 50% inhibition at 10 µM
[3] = DRUGMATRIX: Glutamate, Kainate radioligand binding (ligand: [3H] Kainic acid); type: cell membranes, Rattus norvegicus, Wistar, Brain, Membrane; details: Not Active = under 50% inhibition at 10 µM
[4] = target: T1, 3-hydroxy-3-methylglutaryl-coenzyme A reductase (Homo sapiens, UniProt P04035); parameters: species or system Escherichia coli;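 also: enzyme inhibition assay of HMG-CoA reductase using radiolabeled [14C]HMG-CoA as substrate; in other assays of this panel Not Active means under 50% inhibition at 10 µM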
T1 sequence (P04035 whole entry): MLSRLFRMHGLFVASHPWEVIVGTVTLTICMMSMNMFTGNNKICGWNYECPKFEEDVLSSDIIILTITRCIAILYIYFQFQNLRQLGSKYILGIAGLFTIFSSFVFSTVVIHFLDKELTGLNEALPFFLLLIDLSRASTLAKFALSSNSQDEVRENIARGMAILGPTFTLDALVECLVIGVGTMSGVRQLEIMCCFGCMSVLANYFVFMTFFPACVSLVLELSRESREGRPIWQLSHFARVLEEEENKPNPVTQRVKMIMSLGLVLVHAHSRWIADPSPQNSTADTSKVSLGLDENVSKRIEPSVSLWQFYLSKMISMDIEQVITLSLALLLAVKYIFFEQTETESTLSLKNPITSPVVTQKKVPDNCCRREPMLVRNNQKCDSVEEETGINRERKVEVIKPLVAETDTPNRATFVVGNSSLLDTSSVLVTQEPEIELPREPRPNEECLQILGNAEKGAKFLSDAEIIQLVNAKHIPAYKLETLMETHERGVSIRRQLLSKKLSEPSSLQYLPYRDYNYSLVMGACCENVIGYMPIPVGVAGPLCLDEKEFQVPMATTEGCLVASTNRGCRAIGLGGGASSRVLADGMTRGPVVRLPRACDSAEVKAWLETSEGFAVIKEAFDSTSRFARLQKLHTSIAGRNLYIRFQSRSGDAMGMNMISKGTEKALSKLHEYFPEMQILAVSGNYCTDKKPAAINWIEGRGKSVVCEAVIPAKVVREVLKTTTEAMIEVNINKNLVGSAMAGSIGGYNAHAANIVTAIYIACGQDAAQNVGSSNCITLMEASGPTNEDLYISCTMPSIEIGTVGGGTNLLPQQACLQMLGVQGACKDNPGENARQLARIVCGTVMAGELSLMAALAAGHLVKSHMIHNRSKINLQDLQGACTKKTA

Interstitial collagenase = target: T2, Interstitial collagenase (Homo sapiens, UniProt P03956); assay: biochemical; type: tissue-based, Rheumatoid synovial fibroblasts;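 also: MMP-1 enzyme inhibition assay using a peptide substrate; in other assays of this panel Not Active means under 50% inhibition at 10 µM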
T2 sequence (P03956 whole entry): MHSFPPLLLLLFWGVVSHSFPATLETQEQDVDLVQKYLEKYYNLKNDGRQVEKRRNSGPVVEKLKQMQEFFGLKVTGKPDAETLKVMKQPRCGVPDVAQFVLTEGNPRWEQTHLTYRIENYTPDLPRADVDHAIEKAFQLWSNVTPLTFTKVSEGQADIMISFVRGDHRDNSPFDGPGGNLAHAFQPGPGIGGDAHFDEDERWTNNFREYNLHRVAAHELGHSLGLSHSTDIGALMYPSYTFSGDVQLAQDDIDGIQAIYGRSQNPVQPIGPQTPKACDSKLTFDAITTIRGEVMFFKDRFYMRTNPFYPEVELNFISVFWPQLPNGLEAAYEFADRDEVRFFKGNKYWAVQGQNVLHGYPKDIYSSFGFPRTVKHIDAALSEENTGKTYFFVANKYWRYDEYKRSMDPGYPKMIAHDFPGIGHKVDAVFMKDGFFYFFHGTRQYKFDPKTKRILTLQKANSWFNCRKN

[5] = target: Receptor tyrosine-protein kinase erbB-2 (Homo sapiens, UniProt P04626); assay: biochemical; type: cell-based, Insect cells; details: for IC50: insect cells;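 as to all read-outs here: inhibition of HER2 kinase enzyme activity, measured with Poly(Glu:Tyr) as the phosphorylation substrate; in other assays of this panel Not Active means under 50% inhibition at 10 µM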
Cytochrome P450 1A2 = target: T3, Cytochrome P450 1A2 (Homo sapiens, UniProt P05177); details: bti-tn-5b1-4; also: in other assays of this panel Not Active means under 50% inhibition at 10 µM
T3 sequence (P05177 whole entry): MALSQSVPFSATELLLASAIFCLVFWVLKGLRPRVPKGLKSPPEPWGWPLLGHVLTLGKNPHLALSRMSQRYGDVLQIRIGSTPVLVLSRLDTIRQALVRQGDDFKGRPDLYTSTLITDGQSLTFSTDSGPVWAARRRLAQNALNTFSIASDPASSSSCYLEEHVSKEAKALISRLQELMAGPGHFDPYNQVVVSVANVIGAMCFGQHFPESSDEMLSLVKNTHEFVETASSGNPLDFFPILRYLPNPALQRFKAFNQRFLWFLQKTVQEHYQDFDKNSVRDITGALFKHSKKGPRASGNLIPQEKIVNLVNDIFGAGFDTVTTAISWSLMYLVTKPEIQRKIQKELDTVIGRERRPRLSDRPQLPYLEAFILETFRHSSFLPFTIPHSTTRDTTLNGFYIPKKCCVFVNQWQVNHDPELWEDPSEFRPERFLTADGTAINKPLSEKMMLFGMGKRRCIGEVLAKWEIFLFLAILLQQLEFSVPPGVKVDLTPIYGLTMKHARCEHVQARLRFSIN

Estrogen receptor beta = Estrogen receptor beta (Homo sapiens, UniProt Q92731); details: sf9; also: in other assays of this panel Not Active means under 50% inhibition at 10 µM
Estrogen receptor beta, sequence (Q92731 whole entry): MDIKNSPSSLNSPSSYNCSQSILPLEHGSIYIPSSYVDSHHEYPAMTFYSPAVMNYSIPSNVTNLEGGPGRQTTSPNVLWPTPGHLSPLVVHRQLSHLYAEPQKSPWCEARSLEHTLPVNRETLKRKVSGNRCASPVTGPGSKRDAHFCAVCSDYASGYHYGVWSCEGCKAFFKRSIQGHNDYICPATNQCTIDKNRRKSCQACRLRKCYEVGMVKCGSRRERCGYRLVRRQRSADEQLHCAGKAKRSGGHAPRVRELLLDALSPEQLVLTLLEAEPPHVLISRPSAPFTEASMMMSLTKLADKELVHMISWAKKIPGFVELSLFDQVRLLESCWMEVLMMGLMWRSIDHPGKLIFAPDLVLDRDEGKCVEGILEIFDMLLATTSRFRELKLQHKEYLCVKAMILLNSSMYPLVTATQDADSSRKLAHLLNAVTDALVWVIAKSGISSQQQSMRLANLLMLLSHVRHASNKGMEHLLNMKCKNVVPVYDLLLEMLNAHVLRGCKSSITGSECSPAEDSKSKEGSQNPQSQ

Receptor tyrosine-protein kinase erbB-2, sequence (P04626 whole entry): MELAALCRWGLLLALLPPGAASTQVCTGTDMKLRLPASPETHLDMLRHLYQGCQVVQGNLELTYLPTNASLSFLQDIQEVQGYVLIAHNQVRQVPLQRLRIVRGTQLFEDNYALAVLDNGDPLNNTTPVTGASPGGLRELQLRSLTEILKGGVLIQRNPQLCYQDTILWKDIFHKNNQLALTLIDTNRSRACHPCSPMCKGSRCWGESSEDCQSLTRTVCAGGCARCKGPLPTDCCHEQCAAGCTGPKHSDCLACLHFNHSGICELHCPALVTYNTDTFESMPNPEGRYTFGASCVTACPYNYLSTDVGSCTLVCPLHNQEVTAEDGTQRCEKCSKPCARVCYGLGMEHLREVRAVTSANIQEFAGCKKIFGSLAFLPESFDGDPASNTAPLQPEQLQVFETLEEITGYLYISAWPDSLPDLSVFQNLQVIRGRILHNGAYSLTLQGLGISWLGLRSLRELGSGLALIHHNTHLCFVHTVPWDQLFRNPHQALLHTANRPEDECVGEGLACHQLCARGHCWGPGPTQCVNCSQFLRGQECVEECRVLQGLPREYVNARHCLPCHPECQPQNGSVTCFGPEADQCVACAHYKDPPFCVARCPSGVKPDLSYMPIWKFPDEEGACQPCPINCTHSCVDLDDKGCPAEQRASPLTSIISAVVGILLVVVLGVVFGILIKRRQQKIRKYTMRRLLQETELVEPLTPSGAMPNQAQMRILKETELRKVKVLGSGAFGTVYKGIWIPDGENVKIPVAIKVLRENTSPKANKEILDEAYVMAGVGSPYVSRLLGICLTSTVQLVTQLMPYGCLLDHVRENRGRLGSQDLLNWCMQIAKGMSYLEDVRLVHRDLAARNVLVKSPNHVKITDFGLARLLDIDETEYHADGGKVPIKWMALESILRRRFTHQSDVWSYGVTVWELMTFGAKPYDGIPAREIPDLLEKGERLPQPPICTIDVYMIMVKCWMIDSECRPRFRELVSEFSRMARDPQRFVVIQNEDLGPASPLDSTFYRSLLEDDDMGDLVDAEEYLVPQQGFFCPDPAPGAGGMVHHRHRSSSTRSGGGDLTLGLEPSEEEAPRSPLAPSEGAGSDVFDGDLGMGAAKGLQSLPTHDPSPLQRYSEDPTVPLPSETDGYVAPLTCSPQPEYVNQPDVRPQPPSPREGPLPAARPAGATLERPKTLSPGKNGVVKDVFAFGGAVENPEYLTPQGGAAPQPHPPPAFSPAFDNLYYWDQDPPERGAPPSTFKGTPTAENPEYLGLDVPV

Compound	IC50 [1]	Ki [1]	IC50 [2]	Ki [2]	IC50 [3]	Ki [3]	IC50 [4]	IC50 (Interstitial collagenase)	IC50 [5]	IC50 (Cytochrome P450 1A2)	Ki (Cytochrome P450 1A2)	IC50 (Estrogen receptor beta)	pIC50 ([5]; read-out: IC50)
O=C(c1ccccc1C(F)(F)F)N1CCC(Cc2ccccc2)CC1	Not Active	Not Active	Not Active	Not Active	Not Active	Not Active	Not Active	Not Active	Not Active	Not Active	Not Active	Not Active	–
Nc1ccc2c3c(cccc13)C(=O)NC2=O	Not Active	Not Active	Not Active	Not Active	Not Active	Not Active	Not Active	Not Active	Not Active	Not Active	Not Active	Not Active	–
O=c1cnn([C@@H]2O[C@H](CO)[C@@H](O)[C@H]2O)c(=O)[nH]1 [6-AZAURIDINE]	Not Active	Not Active	Not Active	Not Active	Not Active	Not Active	Not Active	Not Active	Not Active	Not Active	Not Active	Not Active	–
NCCCC(O)(P(=O)(O)O)P(=O)(O)O [ALENDRONIC ACID]	Not Active	Not Active	Not Active	Not Active	Not Active	Not Active	Not Active	Not Active	Not Active	–	–	Not Active	–
Cc1nnc2n1-c1ccc(Cl)cc1C(c1ccccc1)=NC2 [ALPRAZOLAM]	Not Active	Not Active	Not Active	Not Active	Not Active	Not Active	Not Active	Not Active	Not Active	Not Active	Not Active	Not Active	–
CCC1(CCC(C)C)C(=O)NC(=O)NC1=O [AMOBARBITAL]	Not Active	Not Active	Not Active	Not Active	Not Active	Not Active	Not Active	Not Active	Not Active	Not Active	Not Active	Not Active	–
CN1[C@@H]2CC[C@H]1C[C@@H](OC(=O)C(CO)c1ccccc1)C2 (stereo partly drawn) [ATROPINE]	Not Active	Not Active	Not Active	Not Active	Not Active	Not Active	Not Active	Not Active	Not Active	–	–	Not Active	–
COc1cc([C@@H]2c3cc4c(cc3[C@@H](O[C@@H]3O[C@@H]5CO[C@@H](C)O[C@H]5[C@H](O)[C@H]3O)[C@H]3COC(=O)[C@H]23)OCO4)cc(OC)c1O [ETOPOSIDE]	Not Active	Not Active	Not Active	Not Active	Not Active	Not Active	Not Active	Not Active	Not Active	–	–	Not Active	–
COc1ccc2c3c1O[C@H]1C[C@@H](O)C=C[C@@]31CCN(C)C2 [GALANTAMINE]	Not Active	Not Active	Not Active	Not Active	Not Active	Not Active	Not Active	Not Active	Not Active	–	–	Not Active	–
Oc1c(Cl)cc(Cl)c(Cl)c1Cc1c(O)c(Cl)cc(Cl)c1Cl [HEXACHLOROPHENE]	Not Active	Not Active	Not Active	Not Active	Not Active	Not Active	Not Active	Not Active	–	–	–	Not Active	5.48
NNc1nncc2ccccc12 [HYDRALAZINE]	Not Active	Not Active	Not Active	Not Active	Not Active	Not Active	Not Active	Not Active	Not Active	Not Active	Not Active	–	–
CC(=O)[C@@]1(O)CC[C@H]2[C@@H]3CCC4=CC(=O)CC[C@]4(C)[C@H]3CC[C@@]21C [HYDROXYPROGESTERONE]	Not Active	Not Active	Not Active	Not Active	Not Active	Not Active	Not Active	Not Active	Not Active	–	–	Not Active	–
O=c1cc(N2CCOCC2)oc2c(-c3ccccc3)cccc12 [LY-294002]	Not Active	Not Active	Not Active	Not Active	Not Active	Not Active	Not Active	Not Active	Not Active	–	–	Not Active	–
C#CC1(O)CC[C@H]2[C@@H]3CCC4=CC(=O)CC[C@@H]4[C@H]3CC[C@@]21CC (stereo partly drawn) [NORGESTREL]	Not Active	Not Active	Not Active	Not Active	Not Active	Not Active	Not Active	Not Active	Not Active	Not Active	Not Active	–	–
COC(=O)Nc1nc2ccc([S+]([O-])c3ccccc3)cc2[nH]1 (stereo not drawn) [OXFENDAZOLE]	Not Active	Not Active	Not Active	Not Active	Not Active	Not Active	Not Active	Not Active	Not Active	Not Active	Not Active	–	–
CC(C)NCC(O)COc1cccc2[nH]ccc12 (stereo not drawn) [PINDOLOL]	Not Active	Not Active	Not Active	Not Active	Not Active	Not Active	Not Active	Not Active	Not Active	–	–	Not Active	–
CCn1cc(C(=O)O)c(=O)c2cnc(N3CCCC3)nc21 [PIROMIDIC ACID]	Not Active	Not Active	Not Active	Not Active	Not Active	Not Active	Not Active	Not Active	Not Active	–	–	Not Active	–
CCCNCC(O)COc1ccccc1C(=O)CCc1ccccc1 (stereo not drawn) [PROPAFENONE]	Not Active	Not Active	Not Active	Not Active	Not Active	Not Active	Not Active	Not Active	Not Active	–	–	Not Active	–
CC(C)c1cccc(C(C)C)c1O [PROPOFOL]	Not Active	Not Active	Not Active	Not Active	Not Active	Not Active	Not Active	Not Active	Not Active	–	–	Not Active	–
